According to US10317405B2, “Methods of detecting Akt3 and administering Ax1 inhibitor” (BERGENBIO ASA, priority 2012, dated 2019):

Legend:
Akt3 [1] = assay: SureFire assay detecting activated (phosphorylated) Akt3 in cells; type: cell-based; conditions: 10 nM insulin for 10 minutes
Procedure: A SureFire assay was used to specifically detect activated (phosphorylated) Akt3 in WM115, MCF7 and LNCaP cells. Briefly cells were lysated, and antibodies recognizing phosphorylated Akt (p473) and Akt3 were coupled to acceptor and donor beads as described by the manufacturer (PerkinElmer). Cells were either unstimulated or stimulated with 10 nM insulin for 10 minutes to activate Akt.

MCF10A cells [2] = assay: Immunoblot of EMT markers (N-cadherin, vimentin, E-cadherin) in transduced MCF10A cells treated with Akt inhibitor; type: cell-based, human; conditions: inhibitor 10 μM, 12 hours
Procedure: (§1) MCF10A cells were cultured and transduced with retroviral constructs expressing myrAkt1, MyrAkt3 or Slug as described in FIGS. 1 and 3. The cells were treated with Akt inhibitors LY294002 (10 μM, Cell Signaling Technology, Cat. #9901) and Akt VIII (10 μM, Merck, Cat. #124018) for 12 hours as indicated. Cells were then either visualized at indicated magnification by phase-contrast microscopy, or seeded for invasive growth in 3D Matrigel as described in Example 3.
(§2) MCF10A cells were cultured and transduced with retroviral constructs expressing myrAkt1, MyrAkt3 or Slug as described in FIGS. 1 and 3. The cells were treated with Akt inhibitor as described in FIG. 6. SDS/PAGE, immunoblotting and antibodies as described in Examples 1 and 4.

MCF10A cells [3] = assay: Mesenchymal phenotype in 2D growth and invasive growth in 3D Matrigel of transduced MCF10A cells treated with Akt inhibitors; type: cell-based, human; conditions: inhibitor 10 μM, 12 hours
Procedure: as §1

Akt = assay: Immunoblot of Akt activation (pAkt) in transduced MCF10A cells treated with Akt inhibitor; type: cell-based, human; conditions: inhibitor 10 μM, 12 hours
Procedure: as §1, §2

Akt3 [4] = assay: Quantification of nuclear Akt3 immunofluorescence in mammary epithelial cells (HMEC); type: cell-based, human; conditions: 600 nM BGB324 (Axl TKI), 1 uM imatinib (cKit TKI), versus vehicle (DMSO), *P<0.05
Source text: Culturing of MDA-MB-231 cells was as described in Example 3. Primary human mammary epithelial cells (HMEC) were isolated as described (Garbe J C, Pepin F, Pelissier F A, Sputova K, Fridriksdottir A J, Guo D E, Villadsen R, Park M, Petersen O W, Borowsky A D, Stampfer M R, Labarge M A. Accumulation of multipotent progenitors with a basal differentiation bias during aging of human mammary epithelia. Cancer Res. 2012 Jul. 15; 72(14):3687-701) Localization of Akt3 (anti-Akt3-FITC, top panels) in MDA-MB-231 and primary human mammary epithelial cells (HMEC) as in Example 17. Nucleus was stained by DAPI (lower panels). Bar: 50 micron

## insulin: stimulus used to activate Akt in the SureFire assay
Akt3 [1]; LNCaP prostate cells
  Akt3 activity (phosphorylation) signal: no signal
Akt3 [1]; MCF7 breast epithelial cells
  Akt3 activity (phosphorylation) signal: no signal
Akt3 [1]; WM115 melanoma cells
  Akt3 activity (phosphorylation): significantly induce

## O=c1[nH]c2ccccc2n1C1CCN(Cc2ccc(-c3nc4cc5nc[nH]c5cc4nc3-c3ccccc3)cc2)CC1 [AKT VIII]
MCF10A cells [2]
  mesenchymal marker N-cadherin expression: significant reduction
  mesenchymal marker vimentin expression: significant reduction
  re-expression of the epithelial marker E-cadherin: Neither inhibitor led to re-expression
  reversal of the mesenchymal phenotype / inhibition of EMT: partially reverse
MCF10A cells [3]; MCF10A cells expressing MyrAkt3
  mesenchymal phenotype induced by Akt3: inhibit
MCF10A cells [3]; MCF10A cells expressing Slug, 2D culture and 3D Matrigel
  mesenchymal/invasive phenotype induced by Slug in 2D and 3D growth: inhibit
Akt
  Akt activation (pAkt): fully inhibit

## Nc1nc(Nc2ccc3c(c2)CC[C@@H](N2CCCC2)CC3)nn1-c1cc2c(nn1)-c1ccccc1CCC2 [BGB324, 1-(6,7-dihydro-5H-benzo[6,7]cyclohepta[1,2-c]pyridazin-3-yl)-N3-((7-(S)-pyrrolidin-1-yl)-6,7,8,9-tetrahydro-5H-benzo[7]annulene-2-yl)-1H-1,2,4-triazole-3,5-diamine]
Akt3 [4]
  Akt3 nuclear localization: inhibit
